According to US6936628B2, “Oral administration of epothilones” (Bristol-Myers Squibb Company, priority 2002, dated 2005):
Several values for one entry are separate records, joined by “and”; a condition that tells them apart may be missing. Equal values may be shown once.

Tests used:
[1] = tested on: tubulin isolated from calf brain; assay type: biochemical
[2] = tested on: human ovarian carcinoma xenograft A2780; experiment: Antitumor activity by parenteral administration to rats, A2780 xenograft; assay type: in vivo, nude rats
Experimental: The required number of animals needed to detect a meaningful response were pooled at the start of the experiment and each was given a subcutaneous implant of a tumor fragment (≈50 mg) with a 13-gauge trocar. For treatment of early-stage tumors, the animals were again pooled before distribution to the various treatment and control groups. For treatment of animals with advanced-stage disease, tumors were allowed to grow to the pre-determined size window (tumors outside the range were excluded) and animals were evenly distributed to various treatment and control groups. Treatment of each animal was based on individual body weight. Treated animals were checked daily for treatment related toxicity/mortality. Each group of animals was weighed before the initiation of treatment (Wt1) and then again following the last treatment dose (Wt2). The difference in body weight (Wt2−Wt1) provides a measure of treatment-related toxicity.
Tumor response was determined by measurement of tumors with a caliper twice a week, until the tumors reach a predetermined “target” size of 1 gm. Tumor weights (mg) were estimated from the formula: Tumor weight=(length×width^2)÷2
Antitumor activity was evaluated at the maximum tolerated dose (MTD) which is defined as the dose level immediately […] which excessive toxicity (i.e. more than one death) occurred. The MTD was frequently equivalent to OD. When death occurred, the day of death was recorded. Treated mice dying prior to having their tumors reach target size were considered to have died from drug toxicity. No control mice died bearing tumors less than target size. Treatment groups with more than one death caused by drug toxicity were considered to have had excessively toxic treatments and their data were not included in the evaluation of a compound's antitumor efficacy.
Tumor response end-point was expressed in terms of tumor growth delay (T−C value), defined as the difference in time (days) required for the treated tumors (T) to reach a predetermined target size compared to those of the control group (C).
To estimate tumor cell kill, the tumor volume doubling time was first calculated with the formula: TVDT=Median time (days) for control tumors to reach target size−Median time (days) for control tumors to reach half the target size and Log cell kill=T−C÷(3.32×TVDT)
Compound A was evaluated versus the human ovarian carcinoma xenograft A2780 grown in nude rats. […] In comparison, Compound B produced 3.3 LCK at its MTD (2.4 mg/kg/inj, IV, every 8 days×2).

[3] = tested on: Pat-7 human ovarian carcinoma; details: mouse, in vivo, iv
[4] = tested on: Pat-26 human pancreatic carcinoma; details: mouse, in vivo, iv
HCT116/VM46 cells = experiment: In vitro cytotoxicity assay (MTS), HCT116/VM46; assay type: cell-based, human; details: concentration for 50% growth inhibition, HCT116/VM46 versus sensitive HCT116
[5] = tested on: HCT116/VM46 human colon carcinoma; set-up: species or system nude mice; details: mouse, in vivo, iv
[6] = tested on: A2780Tax human ovarian carcinoma; set-up: species or system nude mice; details: mouse, in vivo, iv
[7] = tested on: Pat-21 paclitaxel resistant breast cancer model; set-up: species or system nude mice; details: mouse, in vivo, iv
[8] = cited from earlier work
in vitro = details: human, Caco-2

Q: What does the source list for `C/C(=C\c1csc(C)n1)[C@@H]1C[C@@H]2O[C@]2(C)CCC[C@H](C)[C@H](O)[C@@H](C)C(=O)C(C)(C)[C@@H](O)CC(=O)N1` (relative stereo) [Compound B, [1S-[1R*,3R*(E),7R*,10S*,11R*,16S*]]-7,11-dihydroxy 8,8,10,12,16-pentamethyl-3-[1-methyl-2-(2-methyl-4-thiazolyl)ethenyl-17-oxa-4-azabicyclo[14.1.0]heptadecane-5,9-dione]?
A: Polymerization Potency, EC0.01 [1]: 3.5 µM; Ratio of Polymerization Potency of Analog/Paclitaxel [1]: 0.4; LCK ([2]; A2780 in nude rats, IV, every 8 days×2, at MTD): 3.3; MTD ([2]; nude rats bearing A2780, IV, every 8 days×2): 2.4 mg/kg/inj; LCK [3]: 1.9; LCK (gross log cell kill) [4]: 1.2 and 1.2^3

Q: For `C/C(=C\c1csc(C)n1)[C@@H]1C[C@@H]2O[C@@H]2CCC[C@H](C)[C@H](O)[C@@H](C)C(=O)C(C)(C)[C@@H](O)CC(=O)O1` [BMS-212188 (Epothilone A), Epothilone A], which “Polymerization Potency, EC0.01” value [1] is on record?
A: 2.0 µM

Q: And the “Ratio of Polymerization Potency of Analog/Paclitaxel” value [1]?
A: 0.4

Q: For `CC(=O)O[C@H]1C(=O)[C@@]2(C)[C@H]([C@H](OC(=O)c3ccccc3)[C@]3(O)C[C@H](OC(=O)[C@H](O)[C@@H](NC(=O)c4ccccc4)c4ccccc4)C(C)=C1C3(C)C)[C@]1(OC(C)=O)CO[C@@H]1C[C@@H]2O` [Paclitaxel], which “R/S, or resistance ratio” value (HCT116/VM46 cells) is on record?
A: 155 fold

Q: And the “LCK (gross log cell kill)” value [5]?
A: 0.55^3

Q: What about the “LCK (gross log cell kill)” value [6] of the same compound?
A: 0.8^3

Q: What about the “LCK (gross log cell kill)” value [3] of the same compound?
A: 0.8^3

Q: And the “LCK (gross log cell kill)” value [4]?
A: 0.4

Q: What about the “LCK (gross log cell kill)” value [7] of the same compound?
A: 0.3^3

Q: For `CCCC(=O)Nc1ccc(OCC(O)CNC(C)C)c(C(C)=O)c1` (stereo not drawn) [acebutalol], which “extent of absorption in humans (% absorbed)” value (shortened to “extent … (% absorbed)”) [8] is on record?
A: 40%

Q: Which “extent … (% absorbed)” value [8] does the source give for `CN/C(=N/CCSCc1nc[nH]c1C)NC#N` [cimetidine] here?
A: 95%

Q: What about the Papp (in vitro) of the same compound?
A: 4.9 ×10⁻⁶ cm/s

Q: With `OC[C@@H](O)[C@@H](O)[C@H](O)[C@H](O)CO` [mannitol] as the compound, how does the “extent … (% absorbed)” value [8] read?
A: 15%

Q: And the Papp (in vitro)?
A: 3.2 ×10⁻⁶ cm/s

Q: For “Epothilone B [BMS-205535 (Epothilone B)]”, which “Polymerization Potency, EC0.01” value [1] is on record?
A: 1.8 µM

Q: What about the “Ratio of Polymerization Potency of Analog/Paclitaxel” value [1] of the same compound?
A: 0.3
